Assays:
[1] = molecular target: T1, Acetylcholinesterase (Homo sapiens, UniProt P22303)
Description: Inhibition of human serum AChE by Ellman's method

[2] = molecular target: Acetylcholinesterase (Electrophorus electricus, UniProt O42275)
Description: Inhibition of electric eel AChE by Rappaport method

[3] = molecular target: Cholinesterase (Homo sapiens, UniProt P06276)
Description: Inhibition of human serum BChE by Ellman's method

[4] = in vitro; conditions: pig, PAMPA
Description: Permeability across porcine brain lipid coated polyvinylidene fluoride membrane by PAMPA

[5] = molecular target: T1, Acetylcholinesterase; conditions: 100 uM
Description: Inhibition of human AChE-induced amyloid beta (1-40) aggregation at 100 uM after 24 hrs by thioflavin T fluorescence method

[6] = Inhibition of amyloid beta (1-42) self-aggregation at 1:1 drug to amyloid beta (1 to 42) ratio after 24 hrs by thioflavin T fluorescence method; conditions: concentration not given here

Acetylcholinesterase (Electrophorus electricus, UniProt O42275), sequence (O42275 whole entry): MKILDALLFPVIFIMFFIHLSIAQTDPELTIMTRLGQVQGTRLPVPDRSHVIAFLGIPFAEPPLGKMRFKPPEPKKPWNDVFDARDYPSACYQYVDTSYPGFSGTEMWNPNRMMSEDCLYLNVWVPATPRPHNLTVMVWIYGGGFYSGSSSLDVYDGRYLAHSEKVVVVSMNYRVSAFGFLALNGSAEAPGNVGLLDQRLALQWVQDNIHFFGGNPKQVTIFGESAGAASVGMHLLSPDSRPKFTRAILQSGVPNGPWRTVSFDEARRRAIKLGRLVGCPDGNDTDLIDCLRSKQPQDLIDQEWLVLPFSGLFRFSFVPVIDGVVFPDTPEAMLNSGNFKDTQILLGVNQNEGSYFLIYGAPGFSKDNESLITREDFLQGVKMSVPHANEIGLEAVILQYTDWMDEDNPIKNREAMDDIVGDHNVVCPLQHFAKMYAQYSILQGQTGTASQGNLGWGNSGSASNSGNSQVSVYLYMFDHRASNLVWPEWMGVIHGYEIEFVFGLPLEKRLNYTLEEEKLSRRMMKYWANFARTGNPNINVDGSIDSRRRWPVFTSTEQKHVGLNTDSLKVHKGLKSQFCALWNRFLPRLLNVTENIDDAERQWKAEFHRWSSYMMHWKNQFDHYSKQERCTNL
Cholinesterase, sequence (P06276 whole entry): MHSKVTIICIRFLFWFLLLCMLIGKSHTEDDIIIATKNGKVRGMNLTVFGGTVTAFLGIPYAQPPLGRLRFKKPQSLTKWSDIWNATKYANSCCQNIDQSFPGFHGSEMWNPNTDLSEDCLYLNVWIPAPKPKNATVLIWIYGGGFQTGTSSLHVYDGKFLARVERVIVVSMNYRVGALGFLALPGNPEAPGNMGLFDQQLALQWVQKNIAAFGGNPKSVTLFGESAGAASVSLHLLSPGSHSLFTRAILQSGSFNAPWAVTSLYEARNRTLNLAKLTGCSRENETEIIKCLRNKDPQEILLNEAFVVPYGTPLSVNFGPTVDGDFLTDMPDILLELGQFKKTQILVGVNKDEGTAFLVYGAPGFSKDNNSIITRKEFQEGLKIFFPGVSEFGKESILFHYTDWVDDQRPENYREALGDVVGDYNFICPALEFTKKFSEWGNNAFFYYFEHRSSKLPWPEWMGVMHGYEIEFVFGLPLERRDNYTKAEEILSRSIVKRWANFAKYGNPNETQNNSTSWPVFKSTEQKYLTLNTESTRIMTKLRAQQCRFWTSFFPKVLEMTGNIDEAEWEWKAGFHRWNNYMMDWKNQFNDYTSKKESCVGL
T1 sequence (P22303 whole entry): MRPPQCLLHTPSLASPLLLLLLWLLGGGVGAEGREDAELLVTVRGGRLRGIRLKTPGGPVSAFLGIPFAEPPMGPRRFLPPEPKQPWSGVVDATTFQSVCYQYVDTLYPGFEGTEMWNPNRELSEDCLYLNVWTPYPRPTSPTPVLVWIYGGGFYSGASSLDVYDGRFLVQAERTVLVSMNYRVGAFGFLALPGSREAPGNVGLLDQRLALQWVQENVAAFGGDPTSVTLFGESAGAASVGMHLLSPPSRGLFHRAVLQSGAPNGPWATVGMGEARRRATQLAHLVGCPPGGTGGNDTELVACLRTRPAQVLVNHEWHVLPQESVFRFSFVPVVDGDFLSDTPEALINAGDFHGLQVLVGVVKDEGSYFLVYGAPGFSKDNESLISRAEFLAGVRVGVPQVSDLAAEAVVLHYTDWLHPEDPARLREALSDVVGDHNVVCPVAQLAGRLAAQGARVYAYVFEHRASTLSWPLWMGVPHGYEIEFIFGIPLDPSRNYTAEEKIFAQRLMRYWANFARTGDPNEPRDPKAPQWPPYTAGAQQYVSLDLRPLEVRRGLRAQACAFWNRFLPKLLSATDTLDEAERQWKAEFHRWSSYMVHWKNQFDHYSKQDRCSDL

| Structure (SMILES) | IC50 [1] [nM] | IC50 [2] [nM] | IC50 [3] [µM] | Papp [4] [×10⁻⁶ cm/s] | further results |
| --- | --- | --- | --- | --- | --- |
| CCOC(=O)C1=C(C)Nc2nc3c(c(N)c2C1c1ccc(OC)c(OC)c1)CCCC3 (stereo unspecified) | 45 | 103 | > 100 | – | – |
| COc1ccc(CCN2CCC(Nc3nc4ccccc4n3Cc3ccc(F)cc3)CC2)cc1 [ASTEMIZOLE] | – | – | – | 6.1 | – |
| CCOC(=O)C1=C(C)Nc2nc3c(c(N)c2C1c1ccc(OC)cc1)CCCC3 (stereo unspecified) | – | – | – | – | inhibition [5]: 30.7%; inhibition [6]: 34.9% |
| CC(=O)[C@H]1CC[C@H]2[C@@H]3CCC4=CC(=O)CC[C@]4(C)[C@H]3CC[C@]12C [PROGESTERONE] | – | – | – | 6.6 | – |
| CCn1cc(C(=O)O)c(=O)c2cc(F)c(N3CCNCC3)nc21 [ENOXACIN] | – | – | – | 0.6 | – |
| C[C@]12CCC(=O)C=C1CC[C@@H]1[C@@H]2[C@@H](O)C[C@]2(C=O)[C@@H](C(=O)CO)CC[C@@H]12 [ALDOSTERONE] | – | – | – | 0.6 | – |
| CCOC(=O)C1=C(C)Nc2nc3c(c(N)c2C1c1ccncc1)CCCC3 (stereo unspecified) | 223 | 220 | > 100 | – | – |
| CCOC(=O)C1=C(C)Nc2nc3c(c(N)c2C1c1cccnc1)CCCC3 (stereo unspecified) | 158 | 47 | > 100 | – | – |
| CN(C)CCCN1c2ccccc2Sc2ccccc21 [PROMAZINE] | – | – | – | 7.7 | – |
| CCn1cc(C(=O)O)c(=O)c2cc(F)c(N3CCNC(C)C3)c(F)c21 (stereo unspecified) [LOMEFLOXACIN] | – | – | – | 0.5 | – |
| CN1C(C(=O)Nc2ccccn2)=C(O)c2ccccc2S1(=O)=O [PIROXICAM] | – | – | – | 0.4 | – |
| CCOC(=O)C1=C(C)Nc2nc3c(c(N)c2C1c1ccc(-c2ccccc2)cc1)CCCC3 (stereo unspecified) | 71 | 90 | > 100 | – | – |

Source: ChEMBL document CHEMBL1138487, “Tacripyrines, the first tacrine-dihydropyridine hybrids, as multitarget-directed ligands for the treatment of Alzheimer's disease” (J Med Chem, 2009)
